# According to US9995734B2, “Human T cell line assay for evaluating the immunologic identity of glatiramer acetate preparations” (Mylan Inc., priority 2013, dated 2018):
# Tests used:
# [1] = test system: Donor 3 GMA T-cell lines (165-B5G, 165-C4G, 165-C5G, 165-E9G, 165-F5G, 165-F10G); assay: MHC DR restriction testing (ATP proliferation with autologous and partially HLA-DR matched APC), Donor 3 GMA T-cell lines; type: cell-based, human; settings: 20 μg/mL
# Description: (§1) MHC DR restriction testing of cell lines was carried out by measuring the proliferation response of the cell lines as described above in the presence of an array of APC selected based on the known HLA-DR loci of the original PBMC donor for the cell line tested, including autologous APC (B-LCL). The donors used are described in Table 2.
# (§2) To define the MHC molecule used to present antigen to GA specific T cell lines, GA specific responses were measured in the presence of autologous APC and in the presence of APC matching one of the T cell donor's HLA-DR alleles. Therefore at least 3 APC were used in each experiment: autologous APC, APC matching DR allele 1 but not allele 2 and a third APC matching allele 2 but not allele 1. In some experiments a fourth APC B-LCL was used. A no antigen negative control was used. APC were inactivated by incubation with 50 ug/mL mitomycin C. Following inactivation, cells were washed three times to remove mitomycin C and suspended in X-VIVO 15 medium at 1×10^6 cells per mL. GA was added to the cell suspension to a final concentration of 20-60 μg/mL. The cells were incubated with antigen for 1 hour at 37° C. to allow antigen uptake and binding. The cell suspension was then centrifuged to pellet the cells and the cell pellet was washed once with medium. APC were adjusted to 2×10^5 cells per mL in X-VIVO 15 medium and added to opaque 96-well plates at 100 μL per well. T-cell suspensions of 2-4×10^5 cells per mL (unless otherwise specified) were added to the 96-well plates at 100 μL per well and the cultures incubated 4 days before measuring cell numbers using CellTiter Glo® (to evaluate proliferation).
# (§3) Alternatively, APC were not pulsed. Instead, each well contained 10 ug/mL antigen, 50 μl APC and 100 μL of T cells.
# (§4) After incubating for 4 days at 37° C. (5% CO2), 100 μL were removed from each well, combined with 100 μL CellTiterGlo reagent, and luminescence was measured using a Packard Fusion. Results were expressed in relative light units (RLU).
# (§5) As described in the Methods, T-cell lines were tested for MHC restriction by measuring proliferation following incubation with APC. Mitomycin-treated autologous APC, and test APC, e.g., from donors having at least one HLA-DR match with the original PBMC donor were employed. The values in the data tables below are in RLU.
# (§6) Donor 3 T-cell line 165-B5G was assayed for proliferation, using mitomycin-treated APC from Donors 3, 5, and 6 that had been incubated in the presence or the absence of 20 μg/mL GMA. T-cell line 165-B5G had been restimulated six times (not including the initial stimulation) with antigen before the MHC restriction assay was carried out. The data, shown in Table 62 and FIG. 9A, indicate that 165-B5G is restricted by HLA-DRβ1*11.
# as §6, with “165-C4G” for “165-B5G”, “7” for “6”, “five” for “six”, “63” for “62”, “9B,” for “9A,”
# as §6, with “165-05G” for “165-B5G”, “four” for “six”, “64” for “62”, “10A,” for “9A,”, “HLA-DRβ1*1501.” for “HLA-DRβ1*11.”
# as §6, with “165-E9G” for “165-B5G”, “four” for “six”, “The data, shown in Table 62 and FIG. 9A, indicate that 165-B5G is restricted by HLA-DRβ1*11.” left out
# [2] = test system: Donor 4 COP T-cell lines (205-1D1, 205-1H7, 205-1F4); assay: MHC DR restriction testing (ATP proliferation with autologous and partially HLA-DR matched B-LCL), Donor 4 COP T-cell lines; type: cell-based, human; settings: for Proliferation with antigen-incubated B-LCL, Mean: T-cell line 205-1F4
# Description: as §1, §2, §3, §4, §5
# (§7) Donor 4 T-cell line 205-1D1 was assayed for proliferation, using autologous B-LCL, and B-LCL from Donors 1, 2, and 6 that had been incubated in the presence or absence of 60 μg/mL COP. T-cell line 205-1D1 was restimulated 5 times (not including the initial stimulation) with antigen before the MHC restriction assay was carried out. The results, shown in Table 73, indicate that 205-1D1 is restricted by HLA-DRβ1*13.
# as §7, with “205-1H7” for “205-1D1”, “40” for “60”, “74 and FIG. 14B,” for “73,”
# Donor 4 T-cell line 205-1F4 and 205-1C4 was assayed for proliferation, using autologous B-LCL, and B-LCL from Donors 1, 2, and 6 that had been incubated in the presence or absence of 40 μg/mL COP. T-cell line 205-1F4 was restimulated 7 times (not including the initial stimulation) with antigen before the MHC restriction assay was carried out. The results, shown in Table 75, indicate that 205-1F4 is restricted by HLA-DRβ1*13.
substance,measurement,setting,value
glatiramer acetate [GMA],Proliferation with antigen-incubated APC,"[1]; T-cell line 165-B5G, B-LCL Donor 3 (Autologous) DRβ1*1501/DRβ1*11",4776 RLU
same,Proliferation with antigen-incubated APC,"[1]; T-cell line 165-B5G, B-LCL Donor 5 DRβ1*01/DRβ1*11",5450 RLU
same,Proliferation with antigen-incubated APC,"[1]; T-cell line 165-B5G, B-LCL Donor 6 DRβ1*1501/DRβ1*13",2360 RLU
same,Proliferation with antigen-incubated APC,"[1]; T-cell line 165-C4G, B-LCL Donor 3 (Autologous) DRβ1*1501/DRβ1*11",48711 RLU
same,Proliferation with antigen-incubated APC,"[1]; T-cell line 165-C4G, B-LCL Donor 5 DRβ1*01/DRβ1*11",41833 RLU
same,Proliferation with antigen-incubated APC,"[1]; T-cell line 165-C4G, B-LCL Donor 7 DRβ1*1501/DRβ1*03",4870 RLU
same,Proliferation with antigen-incubated APC,"[1]; T-cell line 165-C5G, B-LCL Donor 3 (Autologous) DRβ1*1501/DRβ1*11",16461 RLU
same,Proliferation with antigen-incubated APC,"[1]; T-cell line 165-C5G, B-LCL Donor 5 DRβ1*01/DRβ1*11",9825 RLU
same,Proliferation with antigen-incubated APC,"[1]; T-cell line 165-C5G, B-LCL Donor 6 DRβ1*1501/DRβ1*13",31717 RLU
same,Proliferation with antigen-incubated APC,"[1]; T-cell line 165-E9G, B-LCL Donor 3 (Autologous) DRβ1*1501/DRβ1*11",5452 RLU
same,Proliferation with antigen-incubated APC,"[1]; T-cell line 165-E9G, B-LCL Donor 5 DRβ1*01/DRβ1*11",9514 RLU
same,Proliferation with antigen-incubated APC,"[1]; T-cell line 165-E9G, B-LCL Donor 6 DRβ1*1501/DRβ1*13",1442 RLU
same,Proliferation with antigen-incubated APC,"[1]; T-cell line 165-F5G, B-LCL Donor 3 (Autologous) DRβ1*1501/DRβ1*11",2862 RLU
same,Proliferation with antigen-incubated APC,"[1]; T-cell line 165-F5G, B-LCL Donor 5 DRβ1*01/DRβ1*11",3971 RLU
same,Proliferation with antigen-incubated APC,"[1]; T-cell line 165-F5G, B-LCL Donor 6 DRβ1*1501/DRβ1*13",1424 RLU
same,Proliferation with antigen-incubated APC,"[1]; T-cell line 165-F10G, B-LCL Donor 3 (Autologous) DRβ1*1501/DRβ1*11",120946 RLU
same,Proliferation with antigen-incubated APC,"[1]; T-cell line 165-F10G, B-LCL Donor 5 DRβ1*01/DRβ1*11",6221 RLU
same,Proliferation with antigen-incubated APC,"[1]; T-cell line 165-F10G, B-LCL Donor 7 DRβ1*1501/DRβ1*03",151115 RLU
glatiramer acetate [COP],Proliferation with antigen-incubated B-LCL,"[2]; T-cell line 205-1D1, B-LCL Donor 1 DRβ1*04:01/DRβ1*07:01, 60 μg/mL",1504.7 RLU
same,Proliferation with antigen-incubated B-LCL,"[2]; T-cell line 205-1D1, B-LCL Donor 2 DRβ1*04:01/DRβ1*04:04, 60 μg/mL",1203.7 RLU
same,Proliferation with antigen-incubated B-LCL,"[2]; T-cell line 205-1D1, B-LCL Donor 4 (autologous) DRβ1*07/DRβ1*13, 60 μg/mL",231113.0 RLU
same,Proliferation with antigen-incubated B-LCL,"[2]; T-cell line 205-1D1, B-LCL Donor 6 DRβ1*15:01/DRβ1*13, 60 μg/mL",203780.3 RLU
same,"Proliferation with antigen-incubated B-LCL, Mean","[2]; APC donor 1 *04:01, *07, 40 μg/mL",11323 RLU
same,"Proliferation with antigen-incubated B-LCL, Mean","[2]; APC donor 2 *04:01*04:04, 40 μg/mL",1786 RLU
same,"Proliferation with antigen-incubated B-LCL, Mean","[2]; APC donor 4 (autologous) *07, *13, 40 μg/mL",84094 RLU
same,"Proliferation with antigen-incubated B-LCL, Mean","[2]; APC donor 6 *13, *15, 40 μg/mL",113079 RLU
same,Proliferation with antigen-incubated B-LCL,"[2]; T-cell line 205-1H7, B-LCL Donor 1 DRβ1*04:01/DRβ1*07:01, 40 μg/mL",8430 RLU
same,Proliferation with antigen-incubated B-LCL,"[2]; T-cell line 205-1H7, B-LCL Donor 2 DRβ1*04:01/DRβ1*04:04, 40 μg/mL",2065 RLU
same,Proliferation with antigen-incubated B-LCL,"[2]; T-cell line 205-1H7, B-LCL Donor 4 (autologous) DRβ1*07/DRβ1*13, 40 μg/mL",32418 RLU
same,Proliferation with antigen-incubated B-LCL,"[2]; T-cell line 205-1H7, B-LCL Donor 6 DRβ1*15:01/DRβ1*13, 40 μg/mL",30583 RLU
